Where two headings read alike, the source gives them in different places.

This series has as its system Anopheles arabiensis. In words: Larvicidal screening (WHO protocol), 3rd instar larvae. Particulars: for mortality at 4 µg/mL: Anopheles arabiensis. The format is in vivo. As for the experimental part: Anopheles arabiensis was used in the study according to the protocol described by WHO (1975) guidelines in an insectary simulating the temperature (27.5° C.), humidity (70%), and lighting (12/12) of a malaria-endemic environment. One mL of test compound (1 mg/mL) was added to 1 mL of acetone and followed by […] of distilled water to obtain a final concentration of 4 μg/mL. Thirty individuals of 3rd instar larvae were introduced into a container. Negative control was set up using the solvent (acetone) and distilled water, and a positive control included Temephos, which is an active emulsified organophosphate larvicidal used by malaria control programs. Larval mortality was examined for each container separately for 24 h and fed specially made cat food that contained less oil/fat content. The percentage of mortality was determined relative to the initial number of larvae exposed.
Differences in larval mortality between treatments were assessed with generalized linear models using a quasi-Poisson link function. Anopheles arabiensis mortality was the dependent variable, while fixed effects were test compounds and observation period (24 and 48 h). A p-value <0.05 was considered statistically significant. Throughout the text, the results are presented as the adjusted mean±the standard error.

Where [1] appears, read: 24 h, read-out: larval mortality rate in 24 hours.
The mark [2] stands for this setting: 48 h, read-out: larval mortality rate in 48 hours.

On to `CCOC(=O)c1cc(C(=O)c2ccc(F)cc2)n2ccc(C(=O)OC(C)C)cc12` [Compound 3d, 1-Ethyl 7-isopropyl 3-(4-fluorobenzoyl)indolizine-1,7-dicarboxylate], for which the mortality at 4 µg/mL by setting is: (24 h, read-out: Mortality 24 h) 87.3 ± 1.64%; under setting [1], 87.3 ± 1.64%; (48 h, read-out: Mortality 48 h) 91.2 ± 3.18%; under setting [2], 91.2 ± 3.18%.
Regarding `COC(=O)c1c(C(=O)OC)c2cc(C(=O)OC(C)C)ccn2c1C(=O)c1ccccc1` [Compound 3a, 7-Isopropyl 1,2-dimethyl 3-benzoylindolizine-1,2,7-tricarboxylate], the mortality at 4 µg/mL (24 h, read-out: Mortality 24 h) turned out to be 39.2 ± 1.64%; the mortality at 4 µg/mL under setting [1] was 39.2 ± 1.64%; the mortality at 4 µg/mL (48 h, read-out: Mortality 48 h) was found to be 45.5 ± 2.65%; the mortality at 4 µg/mL under setting [2] amounted to 45.5 ± 2.65%.
As for `COP(=S)(OC)Oc1ccc(Sc2ccc(OP(=S)(OC)OC)cc2)cc1` [Temephos, reference compound], the mortality at 4 µg/mL was 98.3% (24 h, read-out: Mortality 24 h) and 100% (48 h, read-out: Mortality 48 h).
As to `CCOC(=O)c1cc(C(=O)c2ccccc2)n2ccc(C(=O)OC(C)C)cc12` [Compound 3b, 1-Ethyl 7-isopropyl 3-benzoylindolizine-1,7-dicarboxylate], the mortality at 4 µg/mL is, setting by setting: (24 h, read-out: Mortality 24 h) 32.6 ± 2.44%; under setting [1], 32.6 ± 2.44%; (48 h, read-out: Mortality 48 h) 36.8 ± 1.79%; under setting [2], 36.8 ± 1.79%.
In the case of “1-Ethyl 7-isopropyl 3-(3,5-bis(trifluoromethyl)benzoyl)indolizine-1,7-dicarboxylate [Compound 3m]”, the “Mortality 24 h” value (Anopheles arabiensis larvae exposed 24 h, 4 μg/mL, adjusted mean ± standard error) was 93.45 ± 1.29%. Besides, the “Mortality 48 h” value (Anopheles arabiensis larvae exposed 48 h, 4 μg/mL, adjusted mean ± standard error) is on record as 96.12 ± 1.90%. Besides, for the setting “in 24 hours”, the “larval mortality rate in 24 hours” value is listed as 93.45±1.29. Further, the “larval mortality rate in 48 hours” value (in 48 hours) is on record as 96.12±1.90.
As to `CCOC(=O)c1cc(C(=O)c2ccc(Br)cc2)n2ccc(C(=O)OC(C)C)cc12` [Compound 3h, 1-Ethyl 7-isopropyl 3-(4-bromobenzoyl)indolizine-1,7-dicarboxylate], the mortality at 4 µg/mL amounted to 82.3 ± 1.23% (24 h, read-out: Mortality 24 h); 82.3 ± 1.23% under setting [1]; 86.7 ± 1.39% (48 h, read-out: Mortality 48 h); 86.7 ± 1.39% under setting [2].
Turning to `COC(=O)c1c(C(=O)OC)c2cc(C(=O)OC(C)C)ccn2c1C(=O)c1ccc(C#N)cc1` [Compound 3i, 7-isopropyl 1,2-dimethyl 3-(4-cyanobenzoyl)indolizine-1,2,7-tricarboxylate], the mortality at 4 µg/mL is, setting by setting: (24 h, read-out: Mortality 24 h) 62.4 ± 1.8%; under setting [1], 62.4 ± 1.8%; (48 h, read-out: Mortality 48 h) 63.8 ± 1.9%; under setting [2], 63.8 ± 1.9%.
On to `COC(=O)c1c(C(=O)OC)c2cc(C(=O)OC(C)C)ccn2c1C(=O)c1ccc(C)cc1` [Compound 3k, 7-Isopropyl 1,2-dimethyl 3-(4-methylbenzoyl)indolizine-1,2,7-tricarboxylate], for which the mortality at 4 µg/mL by setting is: (24 h, read-out: Mortality 24 h) 57.5 ± 1.32%; under setting [1], 57.5 ± 1.32%; (48 h, read-out: Mortality 48 h) 60 ± 1.87%; under setting [2], 60 ± 1.87%.
As for `COC(=O)c1c(C(=O)OC)c2cc(C(=O)OC(C)C)ccn2c1C(=O)c1ccc(Cl)cc1` [Compound 3e, 7-Isopropyl 1,2-dimethyl 3-(4-chlorobenzoyl)indolizine-1,2,7-tricarboxylate], the mortality at 4 µg/mL came to 67.9 ± 2.91% (24 h, read-out: Mortality 24 h); 67.9 ± 2.91% under setting [1]; 70.9 ± 1.67% (48 h, read-out: Mortality 48 h); 70.9 ± 1.67% under setting [2].
`COC(=O)c1c(C(=O)OC)c2cc(C(=O)OC(C)C)ccn2c1C(=O)c1ccc(Br)cc1` [Compound 3g, 7-Isopropyl 1,2-dimethyl 3-(4-bromobenzoyl)indolizine-1,2,7-tricarboxylate]: the mortality at 4 µg/mL by setting is: (24 h, read-out: Mortality 24 h) 89.4 ± 2.42%; under setting [1], 89.4 ± 2.42%; (48 h, read-out: Mortality 48 h) 91.1 ± 2.21%; under setting [2], 91.1 ± 2.21%.
Regarding `COC(=O)c1c(C(=O)OC)c2cc(C(=O)OC(C)C)ccn2c1C(=O)c1cc(C(F)(F)F)cc(C(F)(F)F)c1` [Compound 3l, 7-Isopropyl 1,2-dimethyl 3-(3,5-bis(trifluoromethyl)benzoyl)indolizine-1,2,7-tricarboxylate], the mortality at 4 µg/mL reads like this: (24 h, read-out: Mortality 24 h) 97.2 ± 2.3%; under setting [1], 97.2 ± 2.3%; (48 h, read-out: Mortality 48 h) 99.5 ± 1.49%; under setting [2], 99.5 ± 1.49%.
As to `CCOC(=O)c1cc(C(=O)c2ccc(Cl)cc2)n2ccc(C(=O)OC(C)C)cc12` [Compound 3f, 1-Ethyl 7-isopropyl 3-(4-chlorobenzoyl)indolizine-1,7-dicarboxylate], the mortality at 4 µg/mL (24 h, read-out: Mortality 24 h) came out at 66 ± 2.94%; the mortality at 4 µg/mL under setting [1] came to 66 ± 2.94%; the mortality at 4 µg/mL (48 h, read-out: Mortality 48 h) turned out to be 69.2 ± 2.47%; the mortality at 4 µg/mL under setting [2] was found to be 69.2 ± 2.47%.
In the case of `COC(=O)c1c(C(=O)OC)c2cc(C(=O)OC(C)C)ccn2c1C(=O)c1ccc(F)cc1` [Compound 3c, 7-Isopropyl 1,2-dimethyl 3-(4-fluorobenzoyl)indolizine-1,2,7-tricarboxylate], the mortality at 4 µg/mL (24 h, read-out: Mortality 24 h) came out at 79.1 ± 1.65%; the mortality at 4 µg/mL under setting [1] was 79.1 ± 1.65%; the mortality at 4 µg/mL (48 h, read-out: Mortality 48 h) amounted to 82.3 ± 2.71%; the mortality at 4 µg/mL under setting [2] is 82.3 ± 2.71%.
With `CCOC(=O)c1cc(C(=O)c2ccc(C#N)cc2)n2ccc(C(=O)OC(C)C)cc12` [Compound 3j, 1-Ethyl 7-isopropyl 3-(4-cyanobenzoyl)indolizine-1,7-dicarboxylate], the mortality at 4 µg/mL is 61.6 ± 1.23% (24 h, read-out: Mortality 24 h); 61.6 ± 1.23% under setting [1]; 66.1 ± 2.62% (48 h, read-out: Mortality 48 h); 66.1 ± 2.62% under setting [2].
